Measurements reported in paper PMC7175277, “Hydroxylamine Analogue of Agmatine: Magic Bullet for Arginine Decarboxylase” (Biomolecules, 2020).

Molecular target: T1, E. coli ADC (Escherichia coli, UniProt P21170)
T1 construct: The kinetic parameters determined for the partially purified biosynthetic ADC from E. coli; endogenous in cells; host or cells: E. coli DH5α (39-53% ammonium sulphate fraction of the lysate, desalted)
T1 sequence (P21170 1-658): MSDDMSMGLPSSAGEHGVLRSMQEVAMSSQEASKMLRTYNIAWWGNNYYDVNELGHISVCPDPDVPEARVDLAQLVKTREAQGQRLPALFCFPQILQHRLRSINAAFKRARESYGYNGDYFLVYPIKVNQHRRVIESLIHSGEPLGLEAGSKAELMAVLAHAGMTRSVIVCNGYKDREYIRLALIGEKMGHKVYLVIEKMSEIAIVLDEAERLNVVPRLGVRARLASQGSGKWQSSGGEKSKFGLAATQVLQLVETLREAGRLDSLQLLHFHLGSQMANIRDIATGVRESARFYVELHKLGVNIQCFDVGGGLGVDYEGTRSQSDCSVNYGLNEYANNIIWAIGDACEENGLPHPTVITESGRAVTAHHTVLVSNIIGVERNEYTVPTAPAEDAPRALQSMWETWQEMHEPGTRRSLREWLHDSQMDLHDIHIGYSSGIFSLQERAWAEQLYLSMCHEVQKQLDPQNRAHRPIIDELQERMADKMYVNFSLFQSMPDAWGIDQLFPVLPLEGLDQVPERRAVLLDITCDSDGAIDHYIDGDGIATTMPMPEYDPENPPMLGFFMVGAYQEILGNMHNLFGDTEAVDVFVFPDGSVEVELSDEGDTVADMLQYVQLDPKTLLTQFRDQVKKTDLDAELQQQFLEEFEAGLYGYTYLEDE
Assay: E. coli ADC activity assay (HPLC of agmatine)
Type: biochemical
Conditions: for inhibition at 0.1 µM: AO-Agm 100 nM; for inhibition at 0.1 µM / inhibition at 0.5 µM: no preincubation; for inhibition at 0.5 µM: AO-Agm 500 nM
Description: The purification was performed using a modified procedure of earlier publication. E. coli strain DH5α was grown in Luria-Bertani broth at +37 °C with shaking (200 rpm) overnight. The cells were collected by centrifugation and the pellet was homogenized with Potter-Elvehjem in 10 volumes (w/v) of ice-cold 50 mM Tris-HCl pH 7.4, 1 mM DTT. The cell debris was removed by centrifugation at 12,000 g for 30 min at +4 °C. Solid (NH4)2SO4 was added to the supernatant, and the pellet precipitating between 39% and 53% saturation was separated. The precipitate was resuspended in ice-cold buffer containing 50 mM Tris-HCl pH 7.4 and 1 mM DTT and desalted by passage through Sephadex G-25 column (NAP-10 column, GE Healthcare). The protein concentration was measured with Bio-Rad protein reagent, and the partially purified enzyme preparation was mixed with 20% glycerol and aliquoted for storage at −80 °C.
[…] The ODC reaction mixture contained 50 mM Tris-HCl pH 7.8, 1 mM EDTA, 2.4 mM DTT, 0.1 mM PLP and 20 μg of partially purified enzyme preparation. The mixtures were either preincubated or not preincubated for 15 min at +40 °C in the presence of the inhibitor, after which the reaction was started by the addition of 18 μL of 10× substrate (L-Arg for ADC and L-Orn for ODC). After incubation for 30 min (ADC) or 20 min (ODC) at +40 °C, 20 μL of 50% sulphosalicylic acid containing 50 μM diaminoheptane (internal standard) was added and the samples were analyzed for the content of agmatine (ADC) and Put (ODC) with HPLC as described previously. The kinetic parameters and IC50 values were determined with the aid of GraphPad Prism version 5.03 using nonlinear regression analysis.

[1] = 0.1 mM PLP, 15 min preincubation, 0.15 mM L-Arg

Structure (SMILES): N=C(N)NCCCON [AO-Agm, 1-aminooxy-3-guanidinopropane]
- IC50 (0.01 mM PLP, 15 min preincubation, 0.15 mM L-Arg): 0.026 ± 0.001 µM
- Effect of omitting the preincubation time on the efficiency of ADC inhibition (0.1 mM PLP, 0.15 mM L-Arg): did not significantly alter
- IC50 [1]: 0.03 ± 0.001 µM
- Potency as ADC inhibitor relative to DFMA (more potent) [1]: 330 times
- IC50 (1 mM PLP, 15 min preincubation, 0.15 mM L-Arg): 0.089 ± 0.001 µM
- inhibition at 0.1 µM (0.15 mM L-Arg, 0.1 mM PLP): 25%
- inhibition at 0.1 µM (1.5 mM L-Arg, 0.1 mM PLP): ~5%
- inhibition at 0.5 µM (0.15 mM L-Arg, 0.1 mM PLP): 95%
- inhibition at 0.5 µM (1.5 mM L-Arg, 0.1 mM PLP): 60%
